Results reported in patent publication US10086027B1, “Green synthesis of katononic acid nanosheets” (KING SAUD UNIVERSITY, priority 2018, dated 2018).

What was measured:
Assay in all cases: Antimicrobial activity, diffusion agar technique
Format in all cases: cell-based
Conditions in all cases: well diameter 6.0 mm, 100 μl
[1] = system: Geotricum candidum (RCMB 05097)
Protocol: (§1) The antimicrobial effect of the katononic acid nanosheets was evaluated against gram positive bacteria, gram negative bacteria, and fungi. The diffusion agar technique was used with a well diameter of 6.0 mm and 100 μl of katononic acid nanosheets.

[2] = system: Candida albicans (RCMB 05036)
Protocol: as §1

[3] = system: Absidia corymbffera (RCMB 02564)
Protocol: as §1

[4] = system: Streptococcus pyogenes (RCMB 010015)
Protocol: as §1

[5] = system: Staphylococcus aureus (RCMB 010027)
Protocol: as §1

[6] = system: Staphylococcus epidermidis (RCMB 010024)
Protocol: as §1

[7] = system: Salmonella enteritidis (RCMB 010084)
Protocol: as §1

[8] = system: Proteous vulgaris (RCMB 010085)
Protocol: as §1

[9] = system: Klebsiella pneumoniae (RCMB 0010093)
Protocol: as §1

For `C[C@@H]1[C@H](O)[C@@H](C)/C=C/C=C/C=C/C=C/C=C/C=C/C=C/[C@H](O[C@@H]2O[C@H](C)[C@@H](O)[C@H](N)[C@@H]2O)C[C@@H]2O[C@](O)(C[C@@H](O)C[C@@H](O)[C@H](O)CC[C@@H](O)C[C@@H](O)CC(=O)O[C@H]1C)C[C@H](O)[C@H]2C(=O)O` [Amphotericin B], the “Zone of Inhibition (±SD)” value [1] was 27.0 ± 0.20, the “Zone of Inhibition (±SD)” value [2] was 25.7 ± 0.10 and the “Zone of Inhibition (±SD)” value [3] was 23.0 ± 0.10.
With `CC1(C)S[C@@H]2[C@H](NC(=O)[C@H](N)c3ccccc3)C(=O)N2[C@H]1C(=O)O` [Ampicillin] the “Zone of Inhibition (±SD)” value [4] was 26.3 ± 0.34, the “Zone of Inhibition (±SD)” value [5] was 27.3 ± 0.14 and the “Zone of Inhibition (±SD)” value [6] was 25.0 ± 0.18.
Gentamycin was tested, and the “Zone of Inhibition (±SD)” value [7] was 25.2 ± 0.18, the “Zone of Inhibition (±SD)” value [8] was 23.4 ± 0.30 and the “Zone of Inhibition (±SD)” value [9] was 26.4 ± 0.15.
